Test results reported in publication PMC3660600, “Brevilin A, a Novel Natural Product, Inhibits Janus Kinase Activity and Blocks STAT3 Signaling in Cancer Cells” (PLoS ONE, 2013).

Legend:
[1] = target: c-Src (Homo sapiens, UniProt P12931); test: phosphotyrosine Western blot of immunoprecipitated Flag-c-Src from treated HEK293T cells ([…], […] h); format: cell-based
[2] = target: T1, JAK3 (Homo sapiens, UniProt P52333); test: total tyrosine, STAT3 and STAT1 phosphorylation in HEK293T over-expressing JAK3-JH1, Western blot; format: cell-based
T1 construct: JH1 domain
T1 sequence (P52333 781-1124 limits assumed): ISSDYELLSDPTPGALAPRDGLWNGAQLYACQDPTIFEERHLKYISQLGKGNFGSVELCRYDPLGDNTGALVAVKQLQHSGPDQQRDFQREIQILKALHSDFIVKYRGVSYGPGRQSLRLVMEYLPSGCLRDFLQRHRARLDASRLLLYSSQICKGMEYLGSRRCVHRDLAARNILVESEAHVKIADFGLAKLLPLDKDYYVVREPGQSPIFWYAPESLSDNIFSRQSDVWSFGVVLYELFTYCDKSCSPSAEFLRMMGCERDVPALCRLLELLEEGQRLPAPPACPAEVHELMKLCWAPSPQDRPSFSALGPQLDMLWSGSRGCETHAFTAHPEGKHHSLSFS

[3] = target: T2, Tyk2 (Homo sapiens, UniProt P29597); test: in vitro kinase assay with purified Tyk2-JH1 and recombinant hSTAT3 substrate, Western blot pTyr705-STAT3 ([…]); format: biochemical
T2 construct: JH1 tyrosine kinase domain, C-terminal Flag-His tag, purified from HEK293T
T2 sequence (P29597 880-1187 limits assumed): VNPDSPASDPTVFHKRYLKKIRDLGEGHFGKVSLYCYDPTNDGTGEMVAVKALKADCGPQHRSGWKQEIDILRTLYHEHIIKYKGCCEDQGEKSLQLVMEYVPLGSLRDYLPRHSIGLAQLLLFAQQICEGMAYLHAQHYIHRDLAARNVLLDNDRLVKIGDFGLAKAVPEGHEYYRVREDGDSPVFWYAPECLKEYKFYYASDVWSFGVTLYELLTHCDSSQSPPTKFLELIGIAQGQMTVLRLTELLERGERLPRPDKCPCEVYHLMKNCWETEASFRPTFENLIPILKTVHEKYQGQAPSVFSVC

[4] = target: T3, JAK1 (Homo sapiens, UniProt P23458); test: total tyrosine, STAT3 and STAT1 phosphorylation in HEK293T over-expressing JAK1-JH1, Western blot; format: cell-based
T3 construct: JH1 domain
T3 sequence (P23458 875-1153 limits assumed): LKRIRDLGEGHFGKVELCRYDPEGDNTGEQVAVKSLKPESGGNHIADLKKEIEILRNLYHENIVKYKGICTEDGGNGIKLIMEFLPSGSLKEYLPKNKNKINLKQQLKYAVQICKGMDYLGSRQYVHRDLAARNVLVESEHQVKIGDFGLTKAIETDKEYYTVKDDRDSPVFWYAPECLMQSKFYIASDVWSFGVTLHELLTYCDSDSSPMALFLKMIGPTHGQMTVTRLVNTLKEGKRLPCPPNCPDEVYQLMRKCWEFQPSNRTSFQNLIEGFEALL

Chain of c-Src (P12931 2-536): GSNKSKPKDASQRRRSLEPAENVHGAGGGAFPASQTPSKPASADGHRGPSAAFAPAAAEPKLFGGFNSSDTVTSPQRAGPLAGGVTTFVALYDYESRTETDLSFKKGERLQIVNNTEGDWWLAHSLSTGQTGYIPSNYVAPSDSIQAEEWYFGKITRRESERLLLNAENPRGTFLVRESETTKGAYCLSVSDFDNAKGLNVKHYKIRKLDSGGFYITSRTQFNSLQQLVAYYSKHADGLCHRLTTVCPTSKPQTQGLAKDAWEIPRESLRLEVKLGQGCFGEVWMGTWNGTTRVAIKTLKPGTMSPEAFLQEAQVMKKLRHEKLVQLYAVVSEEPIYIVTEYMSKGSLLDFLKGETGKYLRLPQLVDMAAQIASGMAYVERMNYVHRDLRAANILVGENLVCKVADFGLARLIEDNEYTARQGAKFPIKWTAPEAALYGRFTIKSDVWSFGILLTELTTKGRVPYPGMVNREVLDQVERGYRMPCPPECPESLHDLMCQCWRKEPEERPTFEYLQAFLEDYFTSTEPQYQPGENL

| Compound | phosphotyrosine Western blot of immunoprecipitated Flag-c-Src from treated HEK29 [1] | IC50 [2] | in vitro kinase assay with purified Tyk2-JH1 and recombinant hSTAT3 substrate, W [3] | IC50 [4] |
| --- | --- | --- | --- | --- |
| Cc1cc(Nc2ncc3cc(-c4c(Cl)cccc4Cl)c(=O)n(C)c3n2)ccc1F [PD-180970] | IP results showed that PD180970 was able to decrease Src phosphorylation while Brevilin A was not | – | – | – |
| C/C=C(/C)C(=O)O[C@H]1[C@@H]2[C@H](C)C(=O)O[C@@H]2C[C@@H](C)[C@@H]2C=CC(=O)[C@]21C [Brevilin A] | – | IC50 measurements of four JAKs-JH1 truncated kinases. | Western-Blot showed that Brevilin A inhibited Tyk2-JH1 kinase activity directly | IC50 measurements of four JAKs-JH1 truncated kinases. |
